Measurements reported in PubChem BioAssay (NCI).
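Exposure lasted 48 hours, with cells grown in 96-well plates and compounds tested at five concentrations. The concentration for full growth arrest is given as TGI.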

Key:
Test in all cases: DTP human tumour cell line panel, 48 h
786-0 renal = system: 786-0 renal
A549 NSCLC = system: A549 NSCLC
ACHN renal = system: ACHN renal
BT-549 breast = system: BT-549 breast
CCRF-CEM leukemia = system: CCRF-CEM leukemia
COLO 205 colon = system: COLO 205 colon
DU-145 prostate = system: DU-145 prostate
EKVX NSCLC = system: EKVX NSCLC
HCT-116 colon = system: HCT-116 colon
HCT-15 colon = system: HCT-15 colon
HL-60(TB) leukemia = system: HL-60(TB) leukemia
HOP-62 NSCLC = system: HOP-62 NSCLC
HOP-92 NSCLC = system: HOP-92 NSCLC
HS 578T breast = system: HS 578T breast
HT29 colon = system: HT29 colon
IGROV1 ovarian = system: IGROV1 ovarian
K-562 leukemia = system: K-562 leukemia
KM12 colon = system: KM12 colon
LOX IMVI melanoma = system: LOX IMVI melanoma
M14 melanoma = system: M14 melanoma
MALME-3M melanoma = system: MALME-3M melanoma
MCF7 breast = system: MCF7 breast
MDA-MB-231 breast = system: MDA-MB-231 breast
MDA-MB-435 = system: MDA-MB-435
MDA-N = system: MDA-N
MOLT-4 leukemia = system: MOLT-4 leukemia
NCI-H226 lung = system: NCI-H226 lung
NCI-H23 lung = system: NCI-H23 lung
NCI-H460 lung = system: NCI-H460 lung
NCI-H522 lung = system: NCI-H522 lung
NCI/ADR-RES ovarian = system: NCI/ADR-RES ovarian
OVCAR-3 ovarian = system: OVCAR-3 ovarian
OVCAR-4 ovarian = system: OVCAR-4 ovarian
OVCAR-5 ovarian = system: OVCAR-5 ovarian
OVCAR-8 ovarian = system: OVCAR-8 ovarian
PC-3 prostate = system: PC-3 prostate
RPMI-8226 leukemia = system: RPMI-8226 leukemia
RXF 393 renal = system: RXF 393 renal
SF-295 CNS = system: SF-295 CNS
SF-539 CNS = system: SF-539 CNS
SK-MEL-2 melanoma = system: SK-MEL-2 melanoma
SK-MEL-28 melanoma = system: SK-MEL-28 melanoma
SK-OV-3 ovarian = system: SK-OV-3 ovarian
SN12C renal = system: SN12C renal
SNB-19 CNS = system: SNB-19 CNS
SR leukemia = system: SR leukemia
SW-620 colon = system: SW-620 colon
TK-10 renal = system: TK-10 renal
U251 CNS = system: U251 CNS
UACC-257 melanoma = system: UACC-257 melanoma
UACC-62 melanoma = system: UACC-62 melanoma
UO-31 renal = system: UO-31 renal

Compound: CC(=O)Nc1ccc(S(=O)(=O)Nc2nc(-c3ccc(Cl)cc3)cc(N3N=C(c4ccc(Br)cc4)CC3c3ccccc3)n2)cc1 (configuration not stated)
- TGI (786-0 renal): 44 µM
- TGI (A549 NSCLC): 31.5 µM
- TGI (ACHN renal): 58.3 µM
- TGI (BT-549 breast): 34 µM
- TGI (CCRF-CEM leukemia): 90.3 µM
- TGI (COLO 205 colon): 27.1 µM
- TGI (DU-145 prostate): 62.4 µM
- TGI (EKVX NSCLC): 26.5 µM
- TGI (HCT-116 colon): 42.7 µM
- TGI (HCT-15 colon): 31.9 µM
- TGI (HL-60(TB) leukemia): 38.1 µM
- TGI (HOP-62 NSCLC): 35.3 µM
- TGI (HOP-92 NSCLC): 32.4 µM
- TGI (HS 578T breast): 31 µM
- TGI (HT29 colon): 28.3 µM
- TGI (IGROV1 ovarian): 24.1 µM
- TGI (K-562 leukemia): 23.3 µM
- TGI (KM12 colon): 40.4 µM
- TGI (LOX IMVI melanoma): 29.5 µM
- TGI (M14 melanoma): 43 µM
- TGI (MALME-3M melanoma): 40.7 µM
- TGI (MCF7 breast): 16.6 µM
- TGI (MDA-MB-231 breast): 28.6 µM
- TGI (MDA-MB-435): 19.6 µM
- TGI (MDA-N): 29.8 µM
- TGI (MOLT-4 leukemia): 39.5 µM
- TGI (NCI-H226 lung): 31.8 µM
- TGI (NCI-H23 lung): 41.2 µM
- TGI (NCI-H460 lung): 44.3 µM
- TGI (NCI-H522 lung): 31 µM
- TGI (NCI/ADR-RES ovarian): 34.4 µM
- TGI (OVCAR-3 ovarian): 8.46 µM
- TGI (OVCAR-4 ovarian): 30 µM
- TGI (OVCAR-5 ovarian): 27.8 µM
- TGI (OVCAR-8 ovarian): 33.3 µM
- TGI (PC-3 prostate): 36.1 µM
- TGI (RPMI-8226 leukemia): 37.5 µM
- TGI (RXF 393 renal): 39.7 µM
- TGI (SF-295 CNS): 31.5 µM
- TGI (SF-539 CNS): 31.1 µM
- TGI (SK-MEL-2 melanoma): 30.5 µM
- TGI (SK-MEL-28 melanoma): 35.1 µM
- TGI (SK-OV-3 ovarian): 29.9 µM
- TGI (SN12C renal): 32.3 µM
- TGI (SNB-19 CNS): 33.8 µM
- TGI (SR leukemia): 56.6 µM
- TGI (SW-620 colon): 52.5 µM
- TGI (TK-10 renal): 33.5 µM
- TGI (U251 CNS): 32.1 µM
- TGI (UACC-257 melanoma): 37.3 µM
- TGI (UACC-62 melanoma): 25.2 µM
- TGI (UO-31 renal): 30.5 µM
